Assay results: patent US20060165683A1, “Methods and compositions for control of bone formation via modulation of sympathetic tone” (priority 2001, published 2006)

Key:
[1] = test system: murine primary osteoblasts; assay: cAMP production in murine primary osteoblasts; assay type: cell-based, mouse; settings: added with isoproterenol or norepinephrine
Procedure: (§1) Primary osteoblast cultures were established as previously described (see, e.g., Ducy et al., 2000, Cell 100: 197-207) and maintained in αMEM/0.1 mg/ml ascorbic acid supplemented with 10% FBS. SaOS-2 were grown in MEM/10% FBS. For cAMP assay confluent cultures were incubated with serum free medium containing 100 μM IBMX (3-isobutyl-1-methylxanthine, Sigma) for 8 minutes before PBS, PTH(1-34) (Bachem), isoproterenol, norepinephrine, phenylephrine (Sigma) or propranolol were added for 5 min. Intracellular cAMP concentration was measured by immunoassay (R&D Systems). For gene expression analyses, primary osteoblasts were treated for 72 hours with appropriate drugs in 0.1% FBS. Hormone serum levels were quantified using immunoassays kits from Peninsula Laboratories (Insulin) or Alpco Diagnostics (leptin). Deoxypyridinoline cross-links and Creatinine were measured in morning urines using the Quidel kits. a1(I) leptin bioactivity was verified by cotransfection of 293 cells expressing ObRb with a STAT3-responsive-luc reporter construct, pSVβgal plasmid and a1(I) leptin expression vector or mock. Twenty-four hours later luciferase and β-galactosidase activities were measured. Data represents ratios of luciferase/β-galactosidase activities, and values are mean of 6 independent transfection experiments.
For a sympathetic regulation of bone formation to exist several requirements have to be fulfilled. The first one is that functional adrenergic receptors are present on osteoblasts. […] Immunohistochemical analysis of long bones from transgenic mice expressing LacZ under the control of the osteoblast-specific fragment of the a1(I) collagen promoter verified the presence of β2-adrenergic receptors on osteoblasts (FIG. 13B). No other adrenergic receptor subtype could be detected. […] Electron micrographs confirmed the presence of unmyelinated peripheral nerve axons coursing through the marrow adjacent to bone trabeculae and to osteoblasts (FIG. 13E). β-adrenergic receptors are G-coupled receptors that signal through the cAMP pathway (see, e.g., Benovic et al., 1988, Annu Rev Cell Biol 4:405-428). Thus, to assess the biologic relevance of the presence of β2-adrenergic receptors on osteoblasts, these cells were treated with isoproterenol, a β-adrenergic agonist, alone or in the presence of propranolol, a β-adrenergic receptor antagonist; with norepinephrine, the natural ligand of β-adrenergic receptors; with phenylephrine, an α-adrenergic agonist or with vehicle and measured cAMP production. As a positive control, parathyroid hormone (PTH) that binds to another G-coupled receptor present in osteoblasts was used (Gardella & Juppner, 2001, Trends Endocrinol Metab 12:210-217.). […] These effects were abolished by propranolol treatment. […]

wt mice = assay: Propranolol treatment of wt mice; assay type: in vivo, mouse
Procedure: (§2) Wildtype (C57BL/6J) and mutant (C57BL/6J A^y/a, C57BL/6J ob/ob) mice were obtained from the Jackson laboratory and adrenal medullectomized mice from Harlan Tecklad laboratory. Dbh−/− mice were rescued as previously described (Thomas et al., 1998, Neurochem 70:2468-2476). Isoproterenol (Sigma) was injected intraperitoneally (ip) once daily for 6 weeks at 30 mg/kg (wt) or 3 mg/kg (ob/ob). Propranolol (Sigma) was added to the drinking water at a concentration of 0.5 g/l. For ICV infusion, a 28-gauge cannula (Brain infusion kit II, Alza) was implanted into the third ventricle as previously described infusing human leptin (Sigma) at 8 ng/hr or MT-II at 125 ng/hr (Phoenix Pharmaceuticals) for 28 days (see, e.g., Ducy et al., 2000, Cell 100: 197-207). The cannula was connected to an osmotic pump (Alza) placed in the dorsal subcutaneous space of the animal. For parabiosis longitudinal incisions were made in the skin and in the peritoneal cavity along one side on each mouse. Edges of the incisions were connected by suture to induce coelioanastomosis. Cross-circulation was quantified by injecting 1 ml/kg 0.25% Evans blue into the tail vein of one mouse of the parabiosed pair. After 30 min. blood was collected from both mice by retroorbital bleeding and the blood exchange rate was calculated according to standard techniques (see, e.g., Harris & Martin, 1984, Am J Physiol 247:R380-386). […] Two weeks after parabiosis a pump delivering leptin ICV in one animal of each pair was implanted. For GTG lesioning, 4-week-old C57BL/6J mice were given a single ip injection of either PBS or GTG (0.5 mg/g). For MSG lesioning, 2 day-old C57BL/6J pups were injected daily subcutaneously with either PBS or MSG (2 mg/g) for 10 days.
Histological analyses were performed on undecalcified sections stained by von Kossa and counterstained by von Gieson (see, e.g., Ducy et al., 2000, Cell 100:197-207). Static and dynamic histomorphometric analyses were performed according to standard protocols (see, e.g., Parfitt et al., 1987, J Bone Miner Res 6:595-610) using the Osteomeasure Analysis System (Osteometrics, Atlanta). Six to 12 animals were analyzed for each group. Statistical significance was assessed by Student's t test.
as §1
The most important biomedical requirement for regulation of bone formation by the SNS is that β-adrenergic antagonists (β blockers) should increase bone mass by increasing bone formation. To address this point, wt mice were treated for 5 weeks with propranolol (0.4 mg/day). […] In some propranolol-treated mice the bone volume matched what is observed in ob/ob mice. […]

rats = rats treated with propranolol; cited from earlier work
ovariectomized wt mice = assay: Propranolol treatment of ovariectomized wt mice; assay type: in vivo, mouse
Procedure: as §2
To test if it was the case ovariectomy in 6 week-old wt mice was performed and the mice were treated for 7 weeks with propranolol or vehicle. Estrogen depletion by ovariectomy decreased bone mass in vehicle-treated mice. […] This latter result underscores the physiologic and therapeutic importance of the sympathetic regulation of bone formation.

[2] = test system: human SaOS-2 osteoblastic cells; assay: cAMP production in human SaOS-2 osteoblastic cells; assay type: cell-based; settings: SaOS-2, added to β-adrenergic receptor agonists
Procedure: as §1
For a sympathetic regulation of bone formation to exist several requirements have to be fulfilled. The first one is that functional adrenergic receptors are present on osteoblasts. […] No other adrenergic receptor subtype could be detected. […] Thus, to assess the biologic relevance of the presence of β2-adrenergic receptors on osteoblasts, these cells were treated with isoproterenol, a β-adrenergic agonist, alone or in the presence of propranolol, a β-adrenergic receptor antagonist; with norepinephrine, the natural ligand of β-adrenergic receptors; with phenylephrine, an α-adrenergic agonist or with vehicle and measured cAMP production. […]

primary osteoblasts = assay: Gene expression and apoptosis in primary osteoblasts; assay type: cell-based, mouse; settings: primary osteoblasts, isoproterenol plus propranolol
Procedure: as §1
To elucidate the bases of the antiosteogenic effect of isoproterenol in vivo, osteoblast proliferation, gene expression and apoptosis were studied.

CC(C)NCC(O)COc1cccc2ccccc12 (stereo not shown) [propranolol]
effect on agonist-induced cAMP production [1]: abolished | Bone Volume (wt mice; Wild-type + propranolol): High | hyperinsulinism or other hormonal modifications (wt mice; wt mice): did not cause | body weight and fat pad weight (wt mice; wt mice, 5 weeks, 0.4 mg/day): remained normal | bone formation rate (wt mice; wt mice, 5 weeks, 0.4 mg/day): increase | number of osteoblasts (wt mice; wt mice, 5 weeks, 0.4 mg/day): increase | bone mass in vertebrae and long bones (wt mice; wt mice, 5 weeks, 0.4 mg/day (drinking water 0.5 g/l)): significant increase | femoral metaphyseal mineral apposition rates (rats): Increased | bone formation rate vs control ovariectomized mice (ovariectomized wt mice; ovariectomized mice, 7 weeks): striking increase | osteoblast number vs control ovariectomized mice (ovariectomized wt mice; ovariectomized mice, 7 weeks): striking increase | bone mass (ovariectomized wt mice; ovariectomy at 6 weeks of age, treated for 7 weeks): normal | effect on agonist-induced cAMP production [2]: inhibited | inhibitory effect of isoproterenol on gene expression (primary osteoblasts): reversed
